Data reported in the NIST ThermoML archive (doi:10.1016/j.jct.2004.08.006).
± gives the expanded uncertainty stated by the source.

Conditions: 298.15 K; 101.33 kPa; Crystal

mass density [kg/m3]	Structure (SMILES)
1200 ± 200	O=C(O)c1cnccn1 [2-pyrazinecarboxylic acid]
1100 ± 200	NC(=O)c1cnccn1 [pyrazinecarboxamide]
